{"source": "patent US10947185B2", "about": "“Crystal form of dezocine and preparation method therefor” (priority 2017, dated 2021)", "key": {"[1]": {"assay": "Solubility test in 0.1 mol/L hydrochloric acid solution", "format": "physicochemical", "settings": "for solubility: 50 mg sample"}, "[2]": {"assay": "Stability test: changes of related substances over 6 months", "format": "physicochemical", "description": "iii. Compared with the sample of crystal Form I of dezocine, the new crystal form of dezocine prepared according to the present application has better stability, and changes of the related substances within the new crystal form of dezocine over 6 months are as follows: […]"}, "[3]": {"settings": "relative to Dolantin; cited from earlier work"}}, "note": "Read-outs that look alike come from different tables or passages of the source."}
{"smiles": "C[C@@]12CCCCC[C@@H](Cc3ccc(O)cc31)[C@@H]2N", "note": "(single isomer, unassigned) [Crystal Form II of dezocine, (−)-[5R-(5α,11α,13S*)]-13-amino-5,6,7,8,9,10,11,12-octahydro-5-methyl-5,11-methanobenzocy clodecen-3-ol]", "values": [{"measurement": "Solubility increase compared with crystal Form I of dezocine", "setting": "[1]", "result": "about 32%"}, {"measurement": "solubility", "setting": "[1]; simulated gastric fluid, thermodynamic from solid, read-out: Solubility", "result": 33, "unit": "mg/mL"}]}
{"smiles": "C[C@@]12CCCCC[C@@H](Cc3ccc(O)cc31)[C@@H]2N", "note": "(relative stereo) [Example 2, (−)-[5R-(5α,11α,13S*)]-13-amino-5,6,7,8,9,10,11,12-octahydro-5-methyl-5,11-methanobenzocy clodecen-3-ol]", "values": [{"measurement": "Related substances", "setting": "[2]; 0 days", "result": 0.07, "unit": "%"}, {"measurement": "Related substances", "setting": "[2]; 1 month", "result": 0.09, "unit": "%"}, {"measurement": "Related substances", "setting": "[2]; 3 months", "result": 0.10, "unit": "%"}, {"measurement": "Related substances", "setting": "[2]; 6 months", "result": 0.12, "unit": "%"}]}
{"smiles": "C[C@@]12CCCCC[C@@H](Cc3ccc(O)cc31)[C@@H]2N", "note": "(relative stereo) [Example 5, (−)-[5R-(5α,11α,13S*)]-13-amino-5,6,7,8,9,10,11,12-octahydro-5-methyl-5,11-methanobenzocy clodecen-3-ol]", "values": [{"measurement": "Related substances", "setting": "[2]; 0 days", "result": 0.04, "unit": "%"}, {"measurement": "Related substances", "setting": "[2]; 1 month", "result": 0.06, "unit": "%"}, {"measurement": "Related substances", "setting": "[2]; 3 months", "result": 0.07, "unit": "%"}, {"measurement": "Related substances", "setting": "[2]; 6 months", "result": 0.09, "unit": "%"}]}
{"smiles": "C[C@@]12CCCCC[C@@H](Cc3ccc(O)cc31)[C@@H]2N", "note": "(relative stereo) [Example 1, (−)-[5R-(5α,11α,13S*)]-13-amino-5,6,7,8,9,10,11,12-octahydro-5-methyl-5,11-methanobenzocy clodecen-3-ol]", "values": [{"measurement": "Related substances", "setting": "[2]; 0 days", "result": 0.06, "unit": "%"}, {"measurement": "Related substances", "setting": "[2]; 1 month", "result": 0.07, "unit": "%"}, {"measurement": "Related substances", "setting": "[2]; 3 months", "result": 0.10, "unit": "%"}, {"measurement": "Related substances", "setting": "[2]; 6 months", "result": 0.13, "unit": "%"}]}
{"smiles": "C[C@@]12CCCCC[C@@H](Cc3ccc(O)cc31)[C@@H]2N", "note": "(relative stereo) [Example 3, (−)-[5R-(5α,11α,13S*)]-13-amino-5,6,7,8,9,10,11,12-octahydro-5-methyl-5,11-methanobenzocy clodecen-3-ol]", "values": [{"measurement": "Related substances", "setting": "[2]; 0 days", "result": 0.04, "unit": "%"}, {"measurement": "Related substances", "setting": "[2]; 1 month", "result": 0.05, "unit": "%"}, {"measurement": "Related substances", "setting": "[2]; 3 months", "result": 0.8, "unit": "%"}, {"measurement": "Related substances", "setting": "[2]; 6 months", "result": 0.10, "unit": "%"}]}
{"smiles": "C[C@@]12CCCCC[C@@H](Cc3ccc(O)cc31)[C@@H]2N", "note": "(single isomer, unassigned) [Crystal Form I of dezocine, (−)-[5R-(5α,11α,13S*)]-13-amino-5,6,7,8,9,10,11,12-octahydro-5-methyl-5,11-methanobenzocy clodecen-3-ol, reference compound]", "values": [{"measurement": "Related substances", "setting": "[2]; 0 days", "result": 0.08, "unit": "%"}, {"measurement": "Related substances", "setting": "[2]; 1 month", "result": 0.15, "unit": "%"}, {"measurement": "Related substances", "setting": "[2]; 3 months", "result": 0.21, "unit": "%"}, {"measurement": "Related substances", "setting": "[2]; 6 months", "result": 0.28, "unit": "%"}, {"measurement": "solubility", "setting": "[1]", "result": 25, "unit": "mg/mL"}]}
{"smiles": "C[C@@]12CCCCC[C@@H](Cc3ccc(O)cc31)[C@@H]2N", "note": "(relative stereo) [Dezocine, (−)-[5R-(5α,11α,13S*)]-13-amino-5,6,7,8,9,10,11,12-octahydro-5-methyl-5,11-methanobenzocy clodecen-3-ol]", "values": [{"measurement": "Analgesic intensity, onset time, duration of action and maximum analgesic effect, stronger than those of Dolantin", "setting": "[3]", "result": "5-9 times"}]}
{"smiles": "C[C@@]12CCCCC[C@@H](Cc3ccc(O)cc31)[C@@H]2N", "note": "(relative stereo) [Example 4, (−)-[5R-(5α,11α,13S*)]-13-amino-5,6,7,8,9,10,11,12-octahydro-5-methyl-5,11-methanobenzocy clodecen-3-ol]", "values": [{"measurement": "Related substances", "setting": "[2]; 0 days", "result": 0.06, "unit": "%"}, {"measurement": "Related substances", "setting": "[2]; 1 month", "result": 0.08, "unit": "%"}, {"measurement": "Related substances", "setting": "[2]; 3 months", "result": 0.10, "unit": "%"}, {"measurement": "Related substances", "setting": "[2]; 6 months", "result": 0.12, "unit": "%"}]}
